One data set deals with human p21 mRNA. In words: In vitro cleavage assay of human p21 mRNA. In kind it is biochemical. The following applies: in vitro cleavage of p21 mRNA (SEQ ID NO: 1); RNA substrate 500 nM, 37° C. 60 min, agarose gel. An excerpt:
Total RNA was isolates from senescent IMR-90 cells using Nucleospin® RNA kit (Macherey-Nagel™). cDNA was synthesized with gene-specific reverse primers using M-MLV Reverse Transcriptase (Promega), according to the manufacturer's protocol. To generate template for in vitro transcription (IVT) reaction, the cDNA was PCR amplified using KAPA Taq EXtra HotStart® ReadyMix™ PCR Kit (R&D). PCR product was run on 1.5% agarose TAE gel, the correct band size was cut and DNA was cleaned using Wizard® SV Gel and PCR Clean-Up System kit (Promega). IVT was performed using HiScribe™ T7 High Yield RNA Synthesis Kit (NEB). Samples were then treated with DNase I (New England Biolabs) and incubated for 15 minutes at 37° C. IVT product was run on 1.5% agarose TBE gel, the correct band size was cut and RNA was cleaned using QIAquick® Gel Extraction Kit (Qiagen). See primer sequences in Table 1, below.
RNA substrate was diluted with Molecular Biology Grade Water (Biological Industries) and used in in vitro cleavage assay. A 20 μl reaction system comprising RNA substrate (final concentration 500 nM), 2 μl 10× reaction buffer (50 mM Tris-HCl pH 7.4, 100 mM NaCl, 10 mM MgCl2) and 1 μl DNAzyme (10 μM) (as depicted in Table 2, below) was mixed. Reactions were incubated at 37° C. for 60 min. 2×RNA L.D. (Thermo Fisher) was added to each sample. Samples were heated at 70° C. for 30 sec, centrifuged and loaded onto 1.5% agarose TBE gels. Quantification was performed using Image Lab software (Bio Rad).
Turning to “DNAzyme 1742: SEQ ID NO: 59: TCCAGTCCAggctagctacaacgaTGAGCTGGG (DNA TCCAGTCCAGGCTAGCTACAACGATGAGCTGGG; DNA, backbone and methylation of C not given here)”, the Validated cleavage result is “validated for mediating cleavage of p21 mRNA”.
On the same count and under the same terms, then “DNAzyme 1786: SEQ ID NO: 60: GAGGTAGAAggctagctacaacgaTAGGGTGCC (DNA GAGGTAGAAGGCTAGCTACAACGATAGGGTGCC; DNA, backbone and methylation of C not given here)”, with “validated for mediating cleavage of p21 mRNA”; and “DNAzyme 1947: SEQ ID NO: 69: GCTGGACGAggctagctacaacgaTTGAGGGGC (DNA GCTGGACGAGGCTAGCTACAACGATTGAGGGGC; DNA, backbone and methylation of C not given here)”, with “validated for mediating cleavage of p21 mRNA”.
Same read-out and setting: to “DNAzyme 354: SEQ ID NO: 23: CGGTTCTGAggctagctacaacgaATGGCGCCT (DNA CGGTTCTGAGGCTAGCTACAACGAATGGCGCCT; DNA, backbone and methylation of C not given here)” belongs “validated for mediating cleavage of p21 mRNA”.
Regarding “DNAzyme 846: SEQ ID NO: 33: GTGGGCGGAggctagctacaacgaTAGGGCTTC (DNA GTGGGCGGAGGCTAGCTACAACGATAGGGCTTC; DNA, backbone and methylation of C not given here)”, the Validated cleavage entry was “validated for mediating cleavage of p21 mRNA”.
Same read-out and setting: to “DNAzyme 541: SEQ ID NO: 30: GCUCCCAGGggctagctacaacgaGAAGUCACC (DNA GCUCCCAGGGGCTAGCTACAACGAGAAGUCACC; DNA, backbone, methylation of C and T or U not given here)” belongs “validated for mediating cleavage of p21 mRNA”; to “DNAzyme 1252: SEQ ID NO: 42: GGGGGTGAAggctagctacaacgaTTCATAACC (DNA GGGGGTGAAGGCTAGCTACAACGATTCATAACC; DNA, backbone and methylation of C not given here)”, “validated for mediating cleavage of p21 mRNA”.
Same read-out and setting: to “DNAzyme 1641: SEQ ID NO: 53: AGAGGGGAAggctagctacaacgaTGCAGAGCC (DNA AGAGGGGAAGGCTAGCTACAACGATGCAGAGCC; DNA, backbone and methylation of C not given here)” belongs “validated for mediating cleavage of p21 mRNA”; to “DNAzyme 1854: SEQ ID NO: 65: CCTGTGCCAggctagctacaacgaCACATGGGA (DNA CCTGTGCCAGGCTAGCTACAACGACACATGGGA; DNA, backbone and methylation of C not given here)”, “validated for mediating cleavage of p21 mRNA”; to “DNAzyme 1991: SEQ ID NO: 74: AAAGTGCAAggctagctacaacgaGAACTGGGG (DNA AAAGTGCAAGGCTAGCTACAACGAGAACTGGGG; DNA, backbone and methylation of C not given here)”, “validated for mediating cleavage of p21 mRNA”.
Same read-out and setting: then “DNAzyme 1683: SEQ ID NO: 55: AGAGGGTAtccgagccggacgaGAAGGGAAA (DNA AGAGGGTATCCGAGCCGGACGAGAAGGGAAA; DNA, backbone and methylation of C not given here)”, with “validated for mediating cleavage of p21 mRNA”.
For “DNAzyme 1838: SEQ ID NO: 63: GGACCCTCAggctagctacaacgaCCCCACAGC (DNA GGACCCTCAGGCTAGCTACAACGACCCCACAGC; DNA, backbone and methylation of C not given here)”, the Validated cleavage entry is reported as “validated for mediating cleavage of p21 mRNA”.
For “DNAzyme 857: SEQ ID NO: 34: GCAGGCTTtccgagccggacgaTGTGGGCGG (GCAGGCTTTCCGAGCCGGACGATGTGGGCGG; DNA, backbone and methylation of C not given here)”, the Validated cleavage result was “validated for mediating cleavage of p21 mRNA”.
“DNAzyme 1467: SEQ ID NO: 46: TTCACAAGAggctagctacaacgaAGAGGGGGG (DNA TTCACAAGAGGCTAGCTACAACGAAGAGGGGGG; DNA, backbone and methylation of C not given here)”: the Validated cleavage result is listed as “validated for mediating cleavage of p21 mRNA”.

Another data set has as its system senescent human IMR-90 fibroblast cells.
Test: not given
In kind it is cell-based.
Conditions: not given
The method, then: Human IMR-90, BJ, WI-38 fibroblasts and REC epithelial cells were obtained from ATCC and grown at 5% oxygen. IMR-90 and REC cells were maintained in DMEM medium comprising 100 units per ml of penicillin, […] of streptomycin and 10% fetal bovine serum. BJ and WI-38 cells were maintained in EMEM medium comprising 100 units per ml of penicillin, […] of streptomycin, 10% fetal bovine serum, 1% Pyruvate, 1% L-Glutamine, mLFs were isolated according to standard procedures [Seluanov, A., et al. J Vis Exp (2010) (44):2033] and grown at 5% oxygen. Cells were maintained in EMEM medium comprising 100 units per ml of penicillin, […] of streptomycin and 15% fetal bovine serum.
DNA damage induced senescence (DIS) was induced by etoposide treatment (E1383, Sigma) at a concentration of […] for IMR-90, BJ, and WI-38, 16 μM for mLF and 12.5 μM for REC for a duration of 48 hours. Cells acquired the senescence phenotype 7 days post treatment (determined by SA-beta-gal staining).
Oncogene Induced Senescence (OIS) was induced by means of retroviral infection with H-RasG12 (pLNCX2) at 5% oxygen. Retroviruses were packaged, and infections were performed as described below.
Replicative Induced Senescence (RIS) was induced by long-term passaging of the cells in tissue culture. Cells acquired the senescence phenotype after 40 population doublings.
Primary target cells (IMR-90, BJ, […]) were plated in 24-well plates at 100,000 cells per well. Cells were transfected with different concentrations of DNAzymes (as depicted in Table 2, below) using Lipofectamine™ 2000 (Invitrogen) according to manufacturer instructions. The percentage of survival was determined based on quantification of remaining adherent cells using PrestoBlue® reagent (A13262, Life Technologies Ltd.) relative to Lipofectamine™ only control and compared to Scramble DNAzyme (Dz_Scramble) [Scramble Arm (Scr A) sequence: ATCTTCCTFggctagctacaacgaCGCCTCTCC, SEQ ID NO: 5, or Scramble catalytic core (Scr B) sequence: AGGAGAACAacagtaactggcgacGGGATGAGG, SEQ ID NO: 86] treated cells, 3-6 days following transfection.
Regarding “1467 (DNA TTCACAAGAGGCTAGCTACAACGAAGAGGGGGG; chemistry not given here) [compound 1467]”, the Validated cytotoxicity result is on record as “+”.
The same measure, in the same setting: to “394 (DNA AGGCCTTGTCCGAGCCGGACGAGCCGCATGG; chemistry not given here) [compound 394]” belongs “+”; to “495 (DNA GAAGTTCCAGGCTAGCTACAACGACGCTCACGG; chemistry not given here) [compound 495]”, “+”.
The same measure, in the same setting: to “266 (DNA GTCTGTCTTCCGAGCCGGACGATGAATACTC; chemistry not given here) [compound 266]” belongs “+”; to “224 (DNA TGGGGAAATCCGAGCCGGACGAGGGGCTCAG; chemistry not given here) [compound 224]”, “+”; to “1873 (DNA ATAACCCCAGGCTAGCTACAACGATCAAGGGGG; chemistry not given here) [compound 1873]”, “+”.
Same read-out and setting: then “1591 (DNA CAAAAGGTAGGCTAGCTACAACGAAGGGGAGCC; chemistry not given here) [compound 1591]”, with “+”; and “1610 (DNA AAGGGTAGTCCGAGCCGGACGAGGGGCTCCT; chemistry not given here) [compound 1610]”, with “+”; and “1013 (DNA TAATTCTAAGGCTAGCTACAACGAGCCAGAGGC; chemistry not given here) [compound 1013]”, with “+”.
Turning to “75 (DNA CTCCTACCAGGCTAGCTACAACGACCCCTTCCT; chemistry not given here) [compound 75]”, the Validated cytotoxicity entry is “+”.
Same read-out and setting: then “1851 (DNA GTGCCACCAGGCTAGCTACAACGAATGGGACCC; chemistry not given here) [compound 1851]”, with “+”.
The same measure, in the same setting: then “1800 (DNA TGCTTGAGTCCGAGCCGGACGAGCCTGAGGT; chemistry not given here) [compound 1800]”, with “+”.
Still for that read-out and setting: then “1786 (DNA GAGGTAGAAGGCTAGCTACAACGATAGGGTGCC; chemistry not given here) [compound 1786]”, with “+”; and “1791 (DNA TGCCTGAGGGGCTAGCTACAACGAAGAACTAGG; chemistry not given here) [compound 1791]”, with “+”; and “78 (DNA TGTCTCCTAGGCTAGCTACAACGACATCCCCTT; chemistry not given here) [compound 78]”, with “+”.
As to “1872 (DNA TAACCCCATCCGAGCCGGACGACAAGGGGGC; chemistry not given here) [compound 1872]”, the Validated cytotoxicity entry is “+”.
Same read-out and setting: then “1504 (DNA GGGGTGGTTCCGAGCCGGACGAGCTCCAGGA; chemistry not given here) [compound 1504]”, with “+”.
